Test results as given in patent publication US20060069132A1, “Azolecarboxamide herbicides” (priority 2004, published 2006).

Assays:
[1] = system: smallflower umbrella sedge; assay: Test C flooded paddy test; assay type: in vivo, Cyperus difformis
[2] = system: rice; assay: Test B pre-/postemergence herbicide test; assay type: in vivo, Oryza sativa; settings: preemergence
In short: (§1)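 Visual rating, 0 (no effect) to 100 (complete control), versus untreated controls after 13–15 d in greenhouse. Pre- and postemergence applications (postemergence plants 2–18 cm, 1–4 leaves); flooded paddy arm at 2-leaf stage. Compounds in non-phytotoxic solvent plus surfactant.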

[3] = system: giant foxtail; assay: Test B pre-/postemergence herbicide test; assay type: in vivo, Setaria faberi; settings: for Plant response rating, Foxtail, Giant: preemergence; for Foxtail, Giant plant response rating: postemergence, visual rating, scale 0 (no effect) to 100 (complete control)
In short: as §1

[4] = system: ducksalad; assay: Test B flooded paddy test; assay type: in vivo, Heteranthera limosa; settings: 1000 g ai/ha, visual rating, scale 0 to 100 (0 no effect, 100 complete control), 13 to 15 days
In short: (§2)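 Scale 0–100: zero equals no visible effect, 100 complete control, judged by eye relative to controls. Timing: 13 to 15 days in greenhouse post-treatment. Growth stage at spraying: two leaves (paddy) or one to four leaves, 2–18 cm (postemergence).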

[5] = system: lambsquarters; assay: Test B pre-/postemergence herbicide test; assay type: in vivo, Chenopodium album; settings: for Plant response rating, Lambsquarters: preemergence; for Lambsquarters plant response rating: postemergence, visual rating, scale 0 (no effect) to 100 (complete control)
In short: as §1

[6] = system: blackgrass; assay: Test B postemergence herbicide test; assay type: in vivo, Alopecurus myosuroides; settings: postemergence, visual rating, scale 0 (no effect) to 100 (complete control)
In short: as §2

[7] = system: barnyardgrass; assay: Test B flooded paddy test; assay type: in vivo, Echinochloa crus-galli; settings: 1000 g ai/ha, visual rating, scale 0 to 100 (0 no effect, 100 complete control), 13 to 15 days
In short: as §2

[8] = system: morningglory; assay: Test B pre-/postemergence herbicide test; assay type: in vivo, Ipomoea coccinea; settings: for Plant response rating, Morningglory: preemergence; for Morningglory plant response rating: postemergence, visual rating, scale 0 (no effect) to 100 (complete control)
In short: (§3)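 Formulation: non-phytotoxic solvent mix with surfactant. Timing: preemergence on seed and postemergence on 2–18 cm plants, applied concurrently. Readout after 13–15 d greenhouse: visual 0–100 control rating against controls.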

[9] = system: wheat; assay: Test B postemergence herbicide test; assay type: in vivo, Triticum aestivum; set-up: key to Wheat plant response rating: 0 = no effect, 100 = complete control; settings: postemergence, 500 g ai/ha; visual rating, scale 0 (no effect) to 100 (complete control)
In short: as §2

[10] = system: barnyardgrass; assay: Test B pre-/postemergence herbicide test; assay type: in vivo, Echinochloa crus-galli; settings: for Plant response rating, Barnyardgrass: preemergence; for Barnyardgrass plant response rating: postemergence, visual rating, scale 0 (no effect) to 100 (complete control)
In short: as §3

[11] = system: velvetleaf; assay: Test B pre-/postemergence herbicide test; assay type: in vivo, Abutilon theophrasti; settings: for Plant response rating, Velvetleaf: preemergence; for Velvetleaf plant response rating: postemergence, visual rating, scale 0 (no effect) to 100 (complete control)
In short: as §1

[12] = system: pigweed; assay: Test B pre-/postemergence herbicide test; assay type: in vivo, Amaranthus retroflexus; settings: for Plant response rating, Pigweed: preemergence; for Pigweed plant response rating: postemergence, visual rating, scale 0 (no effect) to 100 (complete control)
In short: as §1

[13] = system: ducksalad; assay: Test C flooded paddy test; assay type: in vivo, Heteranthera limosa
[14] = system: large crabgrass; assay: Test B pre-/postemergence herbicide test; assay type: in vivo, Digitaria sanguinalis; settings: for Plant response rating, Crabgrass, Large: preemergence; for Crabgrass, Large plant response rating: postemergence, visual rating, scale 0 (no effect) to 100 (complete control)
In short: as §1

[15] = system: rice; assay: Test C flooded paddy test; assay type: in vivo, Oryza sativa
In short: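 Injury scored visually against controls on a 0 (no effect) to 100 (complete control) scale, 12 to 14 days after treatment in greenhouse. Flooded paddy plants treated at 2-leaf stage; postemergence plants at 1- to 4-leaf stage, 2 to 18 cm tall.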

[16] = system: rice; assay: Test B flooded paddy test; assay type: in vivo, Oryza sativa; settings: 1000 g ai/ha, visual rating, scale 0 to 100 (0 no effect, 100 complete control), 13 to 15 days
In short: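 Read-out: visual comparison with controls, scored 0 to 100, where 100 means complete control and 0 no effect. Formulated chemicals were applied postemergence to plants 2–18 cm tall (1- to 4-leaf), or to flooded-paddy plants at the 2-leaf stage, then held 13 to 15 days under glass.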

[17] = system: small flower umbrella sedge; assay: Test B flooded paddy test; assay type: in vivo, Cyperus difformis; settings: 1000 g ai/ha, visual rating, scale 0 to 100 (0 no effect, 100 complete control), 13 to 15 days
In short: as §2

[18] = system: corn; assay: Test B pre-/postemergence herbicide test; assay type: in vivo, Zea mays; settings: for Plant response rating, Corn: preemergence; for Corn plant response rating: postemergence, visual rating, scale 0 (no effect) to 100 (complete control)
In short: as §1

[19] = system: wild oat; assay: Test B postemergence herbicide test; assay type: in vivo, Avena fatua; settings: postemergence, visual rating, scale 0 (no effect) to 100 (complete control)
In short: as §2

[20] = system: Surinam grass; assay: Test B pre-/postemergence herbicide test; assay type: in vivo, Urochloa decumbens; settings: for Plant response rating, Surinam Grass: preemergence; for Surinam Grass plant response rating: postemergence, visual rating, scale 0 (no effect) to 100 (complete control)
In short: as §1

[21] = system: barnyardgrass; assay: Test C flooded paddy test; assay type: in vivo, Echinochloa crus-galli
In short: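 Scoring by eye, 12–14 days post-treatment, greenhouse-held plants vs. controls; 0 no effect, 100 complete control. Sprayed at 1–4 leaves (2–18 cm); paddy barnyardgrass at 2 leaves, flooded.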

[22] = system: cocklebur; assay: Test B pre-/postemergence herbicide test; assay type: in vivo, Xanthium strumarium; settings: for Plant response rating, Cocklebur: preemergence; for Cocklebur plant response rating: postemergence, visual rating, scale 0 (no effect) to 100 (complete control)
In short: as §3

[23] = 62 g ai/ha, scale 0 to 100 (0 no effect, 100 complete control)
[24] = 125 g ai/ha, scale 0 to 100 (0 no effect, 100 complete control)
[25] = 250 g ai/ha, scale of 0 to 100, 0 is no effect, 100 is complete control
[26] = 500 g ai/ha, visual rating after 12 to 14 days, scale 0 to 100 (0 no effect, 100 complete control)
[27] = 500 g ai/ha, visual rating 0-100, 0 no effect, 100 complete control
[28] = 125 g ai/ha, 0 to 100 scale, 0 is no effect, 100 is complete control

For CCOC(=O)c1cc(N(C(C)=O)C(=O)c2cc(C(C)(C)C)nn2CC)ccc1C [Compound 141], the “Sedge, Umbrella plant response rating” value [1, 23] was 0, the “Sedge, Umbrella plant response rating” value [1, 24] was 0 and the “Sedge, Umbrella plant response rating” value [1, 25] was 30. The “Plant response rating, Sedge, Umbrella” value [1, 26] was 45, the “Plant response rating, Rice” value [2, 27] was 0 and the “Plant response rating, Rice” value [2, 28] was 0. The “Plant response rating, Foxtail, Giant” value [3, 27] was 20, the “Foxtail, Giant plant response rating” value ([3]; 125 g ai/ha) was 20 and the “Foxtail, Giant plant response rating” value ([3]; 500 g ai/ha) was 20. For the same molecule, the “Plant response rating, Foxtail, Giant” value [3, 28] was 10, the “Ducksalad plant response rating” value [4] was 80 and the “Plant response rating, Lambsquarters” value [5, 27] was 0. The “Lambsquarters plant response rating” value ([5]; 125 g ai/ha) was 60, the “Lambsquarters plant response rating” value ([5]; 500 g ai/ha) was 90 and the “Plant response rating, Lambsquarters” value [5, 28] was 0. The “Blackgrass plant response rating” value ([6]; 125 g ai/ha) was 20, the “Blackgrass plant response rating” value ([6]; 500 g ai/ha) was 20 and the “Barnyardgrass plant response rating” value [7] was 10. For the same molecule, the “Plant response rating, Morningglory” value [8, 27] was 30, the “Morningglory plant response rating” value ([8]; 125 g ai/ha) was 20 and the “Morningglory plant response rating” value ([8]; 500 g ai/ha) was 30. For the same molecule, the “Plant response rating, Morningglory” value [8, 28] was 20, the “Wheat plant response rating” value [9] was 20 and the “Plant response rating, Barnyardgrass” value [10, 27] was 0. For the same molecule, the “Barnyardgrass plant response rating” value ([10]; 125 g ai/ha) was 0, the “Barnyardgrass plant response rating” value ([10]; 500 g ai/ha) was 10 and the “Plant response rating, Barnyardgrass” value [10, 28] was 0. The “Plant response rating, Velvetleaf” value [11, 27] was 20, the “Velvetleaf plant response rating” value ([11]; 125 g ai/ha) was 20 and the “Velvetleaf plant response rating” value ([11]; 500 g ai/ha) was 80. The “Plant response rating, Velvetleaf” value [11, 28] was 0, the “Plant response rating, Pigweed” value [12, 27] was 30 and the “Pigweed plant response rating” value ([12]; 125 g ai/ha) was 30. For the same molecule, the “Pigweed plant response rating” value ([12]; 500 g ai/ha) was 80, the “Plant response rating, Pigweed” value [12, 28] was 0 and the “Ducksalad plant response rating” value [13, 23] was 0. For the same molecule, the “Ducksalad plant response rating” value [13, 24] was 0, the “Ducksalad plant response rating” value [13, 25] was 0 and the “Plant response rating, Ducksalad” value [13, 26] was 0. The “Plant response rating, Crabgrass, Large” value [14, 27] was 20, the “Crabgrass, Large plant response rating” value ([14]; 125 g ai/ha) was 10 and the “Crabgrass, Large plant response rating” value ([14]; 500 g ai/ha) was 30. For the same molecule, the “Plant response rating, Crabgrass, Large” value [14, 28] was 10, the “Rice plant response rating” value [15, 23] was 0 and the “Rice plant response rating” value [15, 24] was 0. For the same molecule, the “Rice plant response rating” value [15, 25] was 0, the “Plant response rating, Rice” value [15, 26] was 0 and the “Rice plant response rating” value [16] was 0. For the same molecule, the “Sedge, Umbrella plant response rating” value [17] was 90, the “Plant response rating, Corn” value [18, 27] was 0 and the “Corn plant response rating” value ([18]; 125 g ai/ha) was 0. The “Corn plant response rating” value ([18]; 500 g ai/ha) was 10, the “Plant response rating, Corn” value [18, 28] was 0 and the “Oat, Wild plant response rating” value ([19]; 125 g ai/ha) was 10. The “Oat, Wild plant response rating” value ([19]; 500 g ai/ha) was 20, the “Plant response rating, Surinam Grass” value [20, 27] was 10 and the “Surinam Grass plant response rating” value ([20]; 125 g ai/ha) was 10. For the same molecule, the “Surinam Grass plant response rating” value ([20]; 500 g ai/ha) was 20, the “Plant response rating, Surinam Grass” value [20, 28] was 0 and the “Barnyardgrass plant response rating” value [21, 23] was 0. The “Barnyardgrass plant response rating” value ([21]; 125 g ai/ha, scale of 0 to 100, 0 is no effect, 100 is complete control) was 0, the “Barnyardgrass plant response rating” value [21, 25] was 0 and the “Plant response rating, Barnyardgrass” value [21, 26] was 10. The “Plant response rating, Cocklebur” value [22, 27] was 10, the “Cocklebur plant response rating” value ([22]; 125 g ai/ha) was 0 and the “Cocklebur plant response rating” value ([22]; 500 g ai/ha) was 20. For the same molecule, the “Plant response rating, Cocklebur” value [22, 28] was 0.
